Here are results for 22 compounds from patent US12637428B2, “Isoquinoline derivatives as SIK2 inhibitors” (Cancer Research Technology Limited, priority 2019, dated 2026).

Each structure is given as a SMILES string.

Common to all, as to assay type: biochemical
One assay addresses T1, SIK1 (Homo sapiens, UniProt P57059).
T1 construct: purchased Life Technologies
The experiment in a line: SIK1 kinase assay, IMAP fluorescence polarization. The note with it: 50 or 100 μM ATP, average. On the procedure:
(§1) SIK2, SIK1, SIK3, Abl, Src and EPHA2 Kinase Assays
(§2) SIK2, SIK1, SIK3, Abl, Src and EPHA2 assays were performed using an IMAP fluorescence polarization assay format (Molecular Devices Inc.). 0.6-13 nM of each kinase (Life Technologies) was incubated for 60 min at room temperature with 100 nM of either FAM-Abltide, FAM-Srctide or FAM-HDAC protein derived peptide (synthesized by Alta Biosciences, Birmingham UK). Assays were carried out in the presence of 50 or 100 μM ATP in either 20 mM Tris buffer (pH 7.2) containing 4 mM MgCl2, 0.2% BSA and 2 mM DTT (SIK2, SIK1, SIK3, Abl, Src); or 20 mM Tris buffer (pH 8.5) containing 20 mM MgCl2, 0.5% BSA, 0.2% Triton and 5 mM DTT (EPHA2). Typically, dose response analyses were performed over concentration ranges from 0.00005-1 μM. Reactions were stopped by adding 2 assay volumes of 0.25% (v/v) IMAP binding reagent in either an 85:15 ratio (SIK2, SIK1, SIK3, Abl, EPHA2) or 30:70 ratio (Src) of IMAP binding buffers A and B (Molecular Devices). After incubation to allow the detection reagents to bind to the phosphorylated peptide, fluorescence polarization was measured on a Tecan Infinite plate reader at excitation (470 nm) and emission (530 nm) wavelengths. Inhibition was calculated using no inhibitor and no enzyme controls as 0 and 100% inhibition, respectively.
(§3) Table 3 provides details of the inhibitory constant (nM) of compounds of the invention at SIK1, SIK2 and SIK3 and other kinases.

A further assay deals with T2, Abl (Homo sapiens, UniProt P00519).
T2 construct: purchased Life Technologies
T2 sequence (P00519 whole entry): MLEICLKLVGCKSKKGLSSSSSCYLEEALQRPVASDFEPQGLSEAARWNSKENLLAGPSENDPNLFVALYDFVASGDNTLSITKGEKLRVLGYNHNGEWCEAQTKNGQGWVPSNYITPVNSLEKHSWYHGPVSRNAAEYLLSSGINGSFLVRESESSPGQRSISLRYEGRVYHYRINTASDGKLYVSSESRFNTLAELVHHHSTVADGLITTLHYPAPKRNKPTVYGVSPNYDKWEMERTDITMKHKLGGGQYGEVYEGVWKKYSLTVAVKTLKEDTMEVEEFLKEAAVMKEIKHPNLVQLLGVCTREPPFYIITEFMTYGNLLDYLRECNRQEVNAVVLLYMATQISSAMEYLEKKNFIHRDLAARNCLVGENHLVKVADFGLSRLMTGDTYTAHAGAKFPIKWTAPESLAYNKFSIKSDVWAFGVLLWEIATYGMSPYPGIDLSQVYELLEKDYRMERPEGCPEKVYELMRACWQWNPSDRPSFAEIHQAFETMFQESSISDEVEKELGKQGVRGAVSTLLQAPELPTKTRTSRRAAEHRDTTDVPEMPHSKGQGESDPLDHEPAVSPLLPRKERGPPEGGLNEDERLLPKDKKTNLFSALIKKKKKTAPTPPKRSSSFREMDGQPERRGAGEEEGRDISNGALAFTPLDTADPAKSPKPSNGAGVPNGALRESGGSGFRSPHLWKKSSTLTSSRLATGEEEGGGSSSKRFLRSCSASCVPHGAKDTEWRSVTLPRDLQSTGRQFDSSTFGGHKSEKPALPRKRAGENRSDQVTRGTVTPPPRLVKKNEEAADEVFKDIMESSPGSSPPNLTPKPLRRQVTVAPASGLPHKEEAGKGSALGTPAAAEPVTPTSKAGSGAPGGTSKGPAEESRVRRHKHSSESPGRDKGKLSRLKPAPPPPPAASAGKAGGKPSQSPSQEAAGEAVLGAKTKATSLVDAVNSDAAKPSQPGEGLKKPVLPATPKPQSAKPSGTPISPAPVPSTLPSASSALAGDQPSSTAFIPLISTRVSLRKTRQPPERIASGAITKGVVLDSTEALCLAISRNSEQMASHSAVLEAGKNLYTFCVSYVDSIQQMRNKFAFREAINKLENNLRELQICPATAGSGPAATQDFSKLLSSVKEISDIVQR
Put plainly: Abl kinase assay, IMAP fluorescence polarization. The note with it: 50 or 100 μM ATP, average. The method, then: as §1, §2, §3

The target in the next assay is T3, Src (Homo sapiens, UniProt P12931).
T3 construct: purchased Life Technologies
T3 sequence (P12931 whole entry): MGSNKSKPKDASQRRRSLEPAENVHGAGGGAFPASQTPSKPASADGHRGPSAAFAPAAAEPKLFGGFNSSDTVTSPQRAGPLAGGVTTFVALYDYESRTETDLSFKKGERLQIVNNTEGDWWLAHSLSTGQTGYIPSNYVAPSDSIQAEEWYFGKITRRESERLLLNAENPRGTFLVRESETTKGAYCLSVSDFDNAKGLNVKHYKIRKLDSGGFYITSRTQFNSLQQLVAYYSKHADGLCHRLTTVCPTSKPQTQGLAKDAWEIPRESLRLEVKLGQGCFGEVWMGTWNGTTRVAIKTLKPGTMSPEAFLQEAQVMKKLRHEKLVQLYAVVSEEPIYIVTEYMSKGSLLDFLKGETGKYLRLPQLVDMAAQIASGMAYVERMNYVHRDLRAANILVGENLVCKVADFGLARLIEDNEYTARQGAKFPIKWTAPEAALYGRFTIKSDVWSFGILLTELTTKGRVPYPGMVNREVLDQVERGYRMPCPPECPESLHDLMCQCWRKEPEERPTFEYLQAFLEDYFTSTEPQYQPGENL
The experiment in a line: Src kinase assay, IMAP fluorescence polarization. The note with it: 50 or 100 μM ATP, average. The method, then: as §1, §2, §3

The target of the next assay is T4, SIK3 (Homo sapiens, UniProt Q9Y2K2).
T4 construct: purchased Life Technologies
T4 sequence (Q9Y2K2 whole entry): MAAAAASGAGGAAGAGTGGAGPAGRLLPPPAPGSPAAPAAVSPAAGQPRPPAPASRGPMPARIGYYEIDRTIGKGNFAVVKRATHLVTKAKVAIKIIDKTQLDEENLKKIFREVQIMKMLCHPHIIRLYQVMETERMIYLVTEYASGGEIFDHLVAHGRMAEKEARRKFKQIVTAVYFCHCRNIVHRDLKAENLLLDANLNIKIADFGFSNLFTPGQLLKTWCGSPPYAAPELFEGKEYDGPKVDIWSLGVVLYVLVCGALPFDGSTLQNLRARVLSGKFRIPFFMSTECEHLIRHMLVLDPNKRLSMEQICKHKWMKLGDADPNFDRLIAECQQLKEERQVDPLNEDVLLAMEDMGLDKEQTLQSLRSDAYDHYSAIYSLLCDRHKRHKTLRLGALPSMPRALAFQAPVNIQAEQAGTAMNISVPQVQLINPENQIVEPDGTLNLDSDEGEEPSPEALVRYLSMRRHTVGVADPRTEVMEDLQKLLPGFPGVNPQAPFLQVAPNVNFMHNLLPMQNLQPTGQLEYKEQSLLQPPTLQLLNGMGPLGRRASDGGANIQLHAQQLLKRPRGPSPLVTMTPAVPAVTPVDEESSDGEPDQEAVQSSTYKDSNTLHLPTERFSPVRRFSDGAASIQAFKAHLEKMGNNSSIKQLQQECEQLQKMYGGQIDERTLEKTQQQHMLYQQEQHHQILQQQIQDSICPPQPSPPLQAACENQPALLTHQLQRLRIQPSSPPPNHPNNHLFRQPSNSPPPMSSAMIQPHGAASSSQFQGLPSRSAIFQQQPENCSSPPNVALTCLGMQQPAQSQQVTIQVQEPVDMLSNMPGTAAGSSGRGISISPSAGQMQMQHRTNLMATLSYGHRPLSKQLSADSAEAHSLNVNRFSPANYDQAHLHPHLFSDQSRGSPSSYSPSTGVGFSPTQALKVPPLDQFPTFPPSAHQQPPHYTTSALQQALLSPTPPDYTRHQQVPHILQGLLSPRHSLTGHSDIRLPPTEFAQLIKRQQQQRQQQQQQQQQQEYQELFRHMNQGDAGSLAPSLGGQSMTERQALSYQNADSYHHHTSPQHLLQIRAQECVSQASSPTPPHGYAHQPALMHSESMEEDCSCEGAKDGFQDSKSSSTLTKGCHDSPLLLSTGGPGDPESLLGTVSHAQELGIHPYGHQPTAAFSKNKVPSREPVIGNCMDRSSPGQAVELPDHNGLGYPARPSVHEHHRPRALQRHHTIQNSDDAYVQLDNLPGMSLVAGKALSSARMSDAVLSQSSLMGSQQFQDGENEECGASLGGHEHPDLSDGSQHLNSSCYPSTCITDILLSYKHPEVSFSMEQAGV
Put plainly: SIK3 kinase assay, IMAP fluorescence polarization. The note with it: 50 or 100 μM ATP, average. The method, then: as §1, §2, §3

The target of the next assay is T5, SIK2 (Homo sapiens, UniProt Q9H0K1).
T5 construct: purchased Life Technologies
T5 sequence (Q9H0K1 whole entry): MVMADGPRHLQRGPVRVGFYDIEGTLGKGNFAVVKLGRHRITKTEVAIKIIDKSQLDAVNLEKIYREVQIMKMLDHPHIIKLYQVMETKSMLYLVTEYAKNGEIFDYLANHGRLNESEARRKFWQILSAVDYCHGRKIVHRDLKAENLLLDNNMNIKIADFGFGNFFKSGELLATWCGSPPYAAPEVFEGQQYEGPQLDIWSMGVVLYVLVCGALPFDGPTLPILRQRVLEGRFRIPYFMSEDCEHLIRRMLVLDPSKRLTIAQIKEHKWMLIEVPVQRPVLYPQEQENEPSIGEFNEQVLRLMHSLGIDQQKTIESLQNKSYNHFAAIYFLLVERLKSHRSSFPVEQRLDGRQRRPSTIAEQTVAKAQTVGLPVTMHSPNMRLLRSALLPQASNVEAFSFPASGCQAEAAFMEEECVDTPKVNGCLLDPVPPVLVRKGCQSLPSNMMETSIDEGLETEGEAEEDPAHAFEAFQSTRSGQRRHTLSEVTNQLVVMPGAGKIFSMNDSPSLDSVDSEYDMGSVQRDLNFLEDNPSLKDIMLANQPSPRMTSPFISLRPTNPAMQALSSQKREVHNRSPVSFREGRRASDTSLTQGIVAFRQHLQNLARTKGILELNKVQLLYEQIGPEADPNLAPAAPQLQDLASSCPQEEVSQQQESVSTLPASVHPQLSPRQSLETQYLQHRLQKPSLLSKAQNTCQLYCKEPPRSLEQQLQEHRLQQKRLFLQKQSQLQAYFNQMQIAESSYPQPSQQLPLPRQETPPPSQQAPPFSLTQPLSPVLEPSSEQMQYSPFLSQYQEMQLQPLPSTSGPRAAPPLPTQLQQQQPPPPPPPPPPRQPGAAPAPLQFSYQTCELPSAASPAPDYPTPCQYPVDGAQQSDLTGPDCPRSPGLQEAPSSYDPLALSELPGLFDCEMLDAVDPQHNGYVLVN
Put plainly: SIK2 kinase assay, IMAP fluorescence polarization. The note with it: 50 or 100 μM ATP, average. The method, then: as §1, §2, §3

A further assay concerns the target T6, EPHA2 (Homo sapiens, UniProt P29317).
T6 construct: purchased Life Technologies
The experiment in a line: EPHA2 kinase assay, IMAP fluorescence polarization. The note with it: 50 or 100 μM ATP, Tris pH 8.5, average. On the procedure: as §1, §2, §3

T1 sequence (P57059 whole entry): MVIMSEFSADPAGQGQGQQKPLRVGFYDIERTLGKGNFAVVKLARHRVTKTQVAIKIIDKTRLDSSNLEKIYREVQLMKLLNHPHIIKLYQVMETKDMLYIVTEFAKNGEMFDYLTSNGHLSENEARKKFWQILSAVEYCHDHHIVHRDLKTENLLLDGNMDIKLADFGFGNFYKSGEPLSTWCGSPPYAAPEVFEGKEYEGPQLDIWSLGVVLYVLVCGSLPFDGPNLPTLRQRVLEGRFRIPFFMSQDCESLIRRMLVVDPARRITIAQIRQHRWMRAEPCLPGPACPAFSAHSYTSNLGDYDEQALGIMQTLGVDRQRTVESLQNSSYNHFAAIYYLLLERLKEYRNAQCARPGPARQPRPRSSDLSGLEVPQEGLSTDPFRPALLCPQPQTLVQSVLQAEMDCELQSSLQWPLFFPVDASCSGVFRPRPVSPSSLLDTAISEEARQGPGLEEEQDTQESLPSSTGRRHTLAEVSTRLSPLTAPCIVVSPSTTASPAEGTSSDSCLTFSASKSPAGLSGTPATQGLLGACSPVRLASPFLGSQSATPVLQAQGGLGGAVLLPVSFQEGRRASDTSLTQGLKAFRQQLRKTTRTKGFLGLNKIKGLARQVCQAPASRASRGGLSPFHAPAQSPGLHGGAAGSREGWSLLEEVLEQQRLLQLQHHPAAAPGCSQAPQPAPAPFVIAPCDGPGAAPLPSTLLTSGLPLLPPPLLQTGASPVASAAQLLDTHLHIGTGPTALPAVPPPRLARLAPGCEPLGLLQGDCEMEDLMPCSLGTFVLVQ

As for `Cc1cccc(Cl)c1-c1cc(NC2CCN(C)CC2)c2cc(N)ncc2c1` [Example 62, 7-(2-Chloro-6-methyl-phenyl)-N5-(1-methyl-4-piperidyl)isoquinoline-3,5-diamine], the Ki on SIK1 turned out to be 0.492 nM; at Abl it was 209 nM; at Src, 313 nM; on SIK3, 2.94 nM; at SIK2, 0.133 nM; at EPHA2 it was 199 nM.

In the case of `Cc1cccc(F)c1-c1cc2cnc(N)cc2c(NC2CCNCC2)c1F` [Example 134, 6-Fluoro-7-(2-fluoro-6-methyl-phenyl)-N5-(4-piperidyl)isoquinoline-3,5-diamine], the Ki was 0.558 nM on SIK1; 1.94 nM on Abl; 12.3 nM at Src; 0.452 nM on SIK3; 0.132 nM on SIK2; 25.1 nM on EPHA2.

For the compound `CNc1cc2c(NC3CCNCC3)cc(-c3c(C)cccc3F)cc2cn1` [Example 27, 7-(2-Fluoro-6-methyl-phenyl)-N3-methyl-N5-(4-piperidyl)isoquinoline-3,5-diamine], the inhibitory constant (Ki) at SIK1 stood at 0.429 nM; at Abl, 22.9 nM; on Src, 218 nM; at SIK3, 0.349 nM; on SIK2 it was 0.0748 nM; on EPHA2 it was 216 nM.

On to `Cc1cccc(F)c1-c1cc(NC2CCNCC2)c2ncncc2c1` [Example 123, 6-(2-Fluoro-6-methyl-phenyl)-N-(4-piperidyl)quinazolin-8-amine], for which the Ki on SIK1 was 2.72 nM; on Abl, more than 1000 nM; at Src it was more than 1000 nM; at SIK3, 6.92 nM; at SIK2, 1.86 nM; on EPHA2, 216 nM.

In the case of `Cc1cccc(F)c1-c1cc(NC[C@@H]2CCCNC2)c2cc(N)ncc2c1` [Example 10, 7-(2-fluoro-6-methyl-phenyl)-N5-[[(3R)-3-piperidyl]methyl]isoquinoline-3,5-diamine], the Ki was 0.535 nM at SIK1; 4.83 nM on Abl; 32.1 nM at Src; 0.966 nM at SIK3; 0.101 nM on SIK2; 47.6 nM at EPHA2.

Take `Cc1cccc(F)c1-c1cc(NC[C@H]2CCCN2C)c2cc(N)ncc2c1` [Example 73, 7-(2-fluoro-6-methyl-phenyl)-N5-[[(2R)-1-methylpyrrolidin-2-yl]methyl] isoquinoline-3,5-diamine]: the Ki on SIK1 stood at 0.498 nM; at Abl, 6.45 nM; on Src, 98.1 nM; on SIK3, 0.528 nM; on SIK2, 0.0693 nM; on EPHA2, 251 nM.

With `Cc1cccc(F)c1-c1cc(NC2CCNCC2)c2cc(NC(C)C)ncc2c1` [Example 28, 7-(2-fluoro-6-methyl-phenyl)-N3-isopropyl-N5-(4-piperidyl)isoquinoline-3,5-diamine], the Ki on SIK1 is 1.39 nM; at Abl, 14.8 nM; at Src, 413 nM; on SIK3 it was 0.504 nM; on SIK2, 0.155 nM; on EPHA2, more than 1000 nM.

For the compound `Cc1cccc(F)c1-c1cc(NC(=O)C2CNC2)c2cc(N)ncc2c1` [Example 45, N-[3-amino-7-(2-fluoro-6-methyl-phenyl)-5-isoquinolyl] azetidine-3-carboxamide], the Ki on SIK1 came to 17.8 nM; on Abl it was 84 nM; on Src, 883 nM; on SIK3, 35.4 nM; on SIK2, 5.48 nM; on EPHA2, 924 nM.

For the compound `Cc1cccc(F)c1-c1cc(N[C@H]2CCCN(C)C2)c2cc(N)ncc2c1` [Example 86, 7-(2-fluoro-6-methyl-phenyl)-N5-[(3S)-1-methyl-3-piperidyl] isoquinoline-3,5-diamine], the Ki at SIK1 came to 0.656 nM; at Abl, 6.72 nM; on Src, 34.3 nM; on SIK3 it was 1.98 nM; at SIK2, 0.0838 nM; on EPHA2, 22.3 nM.

For the compound `CCN1CCC(Nc2cc(-c3c(C)cccc3Cl)cc3cncnc23)CC1` [Example 131, 6-(2-chloro-6-methyl-phenyl)-N-(1-ethyl-4-piperidyl)quinazolin-8-amine], the Ki was 5.39 nM at SIK1; 237 nM at Abl; 285 nM at Src; 20.9 nM on SIK3; 5.59 nM on SIK2; 75.6 nM at EPHA2.

On to `Cc1cccc(F)c1-c1cc(NC(=O)C2CCNC2)c2cc(N)ncc2c1` (stereo not shown) [Example 136, N-[3-amino-7-(2-fluoro-6-methyl-phenyl)-5-isoquinolyl] pyrrolidine-3-carboxamide], for which the Ki at SIK1 was determined as 1.9 nM; at Abl it was 27.6 nM; on Src it was 147 nM; on SIK3, 8.89 nM; on SIK2 it was 1.1 nM; at EPHA2, 260 nM.

Turning to `CN1CCC(Nc2cc(-c3c(F)cccc3Cl)cc3cnc(N)cc23)CC1` [Example 64, 7-(2-Chloro-6-fluoro-phenyl)-N5-(1-methyl-4-piperidyl)isoquinoline-3,5-diamine], the Ki on Abl is more than 10000 nM; on Src, 2420 nM; at SIK2, 11.7 nM.

Consider `Cc1cccc(F)c1-c1cc(N2CC[C@H](O)C2)c2cc(N)ncc2c1` [Example 105, (3S)-1-[3-amino-7-(2-fluoro-6-methyl-phenyl)-5-isoquinolyl]pyrrolidin-3-ol], for which the Ki at Abl was 169 nM; on Src it was more than 10000 nM; at SIK2 it was 38.1 nM.

Consider `Cc1cccc(F)c1-c1ccc2c(C(=O)NC3CCNCC3)c(N)ncc2c1` [Example 35, 3-amino-7-(2-fluoro-6-methyl-phenyl)-N-(4-piperidyl)isoquinoline-4-carboxamide], for which the Ki at Abl is 446 nM; at Src, 564 nM; at SIK2, 11.4 nM.

In the case of `Cc1cccc(Cl)c1-c1ccc2c(C(=O)NC3CCNCC3)c(N)ncc2c1` [Example 41, 3-amino-7-(2-chloro-6-methyl-phenyl)-N-(4-piperidyl)isoquinoline-4-carboxamide], the Ki at SIK1 worked out at 6.07 nM; at Abl it was 190 nM; at Src it was 58.4 nM; on SIK3, 61.7 nM; on SIK2 it was 3.75 nM.

Consider `Cc1cccc(Cl)c1-c1ccc2c(C(=O)N[C@H]3CCN(C)C3)c(N)ncc2c1` [Example 98, 3-amino-7-(2-chloro-6-methyl-phenyl)-N-[(3S)-1-methylpyrrolidin-3-yl]isoquinoline-4-carboxamide], for which the results for the Ki on Abl, on Src and at SIK2 were 481 nM, 317 nM and 12.8 nM, respectively.

Consider `Cc1cccc(F)c1-c1ccc2c(C(=O)NC3CCN(C)CC3)c(N)ncc2c1` [Example 87, 3-Amino-7-(2-fluoro-6-methyl-phenyl)-N-(1-methyl-4-piperidyl)isoquinoline-4-carboxamide], for which the Ki on Abl was found to be 667 nM; at Src, 574 nM; on SIK2 it was 9.99 nM.

For `Cc1cccc(F)c1-c1cc(N2CC[C@@H](CN(C)C)C2)c2cc(N)ncc2c1` [Example 81, 5-[(3S)-3-[(dimethylamino)methyl]pyrrolidin-1-yl]-7-(2-fluoro-6-methyl-phenyl) isoquinolin-3-amine], the Ki worked out at 296 nM on Abl, 1350 nM at Src and 7.68 nM at SIK2.

With `Cc1cccc(Cl)c1-c1ccc2c(C(=O)N[C@H]3CCNC3)c(N)ncc2c1` [Example 43, 3-amino-7-(2-chloro-6-methyl-phenyl)-N-[(3S)-pyrrolidin-3-yl]isoquinoline-4-carboxamide], the Ki is 345 nM on Abl, 136 nM on Src and 6.54 nM on SIK2.

As for `Cc1cccc(F)c1-c1ccc2c(C(=O)NC3CNC3)c(N)ncc2c1` [Example 32, 3-Amino-N-(azetidin-3-yl)-7-(2-fluoro-6-methyl-phenyl)isoquinoline-4-carboxamide], the Ki was found to be 487 nM on Abl, 723 nM at Src and 27.3 nM on SIK2.

`Cc1cccc(Cl)c1-c1ccc2c(C(=O)NC3CNC3)c(N)ncc2c1` [Example 38, 3-amino-N-(azetidin-3-yl)-7-(2-chloro-6-methyl-phenyl)isoquinoline-4-carboxamide]: the Ki was 88.5 nM at Abl, 137 nM on Src, 11.3 nM at SIK2 and 764 nM on EPHA2.

In the case of `Cc1cccc(F)c1-c1ccc2c(C(=O)N[C@@H]3CCNC3)c(N)ncc2c1` [Example 36, 3-amino-7-(2-fluoro-6-methyl-phenyl)-N-[(3R)-pyrrolidin-3-yl]isoquinoline-4-carboxamide], on SIK2, the Ki came out at 18.2 nM.
